Data from patent US8247211B2, “Glycopeptide antibiotics” (American Cyanamid Company, priority 2001, dated 2012).

Experiments:
Test in all cases: In vitro antibacterial evaluation: minimum inhibitory concentration (MIC), broth dilution method
Assay type in all cases: cell-based
Streptococcus sp. = conditions: 18 hours at 35° C.
Outline: (§1)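 NCCLS M7-A2 broth dilution with Mueller-Hinton II, testing 64-0.06 μg/mL antibiotic against 5×10^5 CFU/mL inocula. Test strains include recent methicillin-, penicillin- or vancomycin-resistant clinical isolates. MIC is the lowest concentration preventing growth.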

Staphylococcus sp. = conditions: 18 hours at 35° C.
Outline: as §1

Enterococcus sp. = system: Enterococcus sp.
Outline: as §1

Escherichia coli [1] = system: Escherichia coli
Outline: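 Inoculum: 5×10^5 CFU/mL. Range: 64-0.06 μg/mL. Medium: Muller-Hinton II […]; NCCLS M7-A2 broth dilution. Endpoint: lowest concentration inhibiting growth. Strains include methicillin-, penicillin- and/or vancomycin-resistant clinical isolates.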

Escherichia coli [2] = system: Escherichia coli; remark: listed apart in the source

β-O-[(Cyclohexylamino)carbonyl]-cyclo[glycyl-β-methylphenylalanyl-O-(4-O-hexonyranosylhexopyranosyl)tyrosyl-3-(2-iminoimidazolidin-4-yl)seryl-3-(3-hexopyranosyl-2-iminoimidazolidin-4-yl)serylseryl] [Example 256a]
8 µg/mL: MIC Escherichia coli (GC 4560) (Escherichia coli [1]; Escherichia coli (GC 4560))
64 µg/mL: MIC Streptococcus pneumoniae (GC 4565) (Streptococcus sp.; Streptococcus pneumoniae (GC 4565)) | MIC Streptococcus pyogenes (ID-3187) (Streptococcus sp.; Streptococcus pyogenes (ID-3187)) | MIC Streptococcus pneumoniae (GC 4565) (Streptococcus sp.; broth dilution, strain GC 4565) | MIC Streptococcus pyogenes (ID-3187) (Streptococcus sp.; broth dilution, strain ID-3187) | MIC Coagulase Negative Staphylococcus (ID-3941) (Staphylococcus sp.; Coagulase Negative Staphylococcus (ID-3941))
32 µg/mL: MIC Enterococcus faecium (GC 4557) (Enterococcus sp.; Enterococcus faecium (GC 4557)) | MIC Enterococcus faecium (GC 4557) (Enterococcus sp.; broth dilution, 18 hours at 35° C., strain GC 4557)
>64 µg/mL: MIC Streptococcus agalactiae (GC 4564) (Streptococcus sp.; Streptococcus agalactiae (GC 4564)) | MIC Streptococcus agalactiae (GC 4564) (Streptococcus sp.; broth dilution, strain GC 4564) | MIC Coagulase Negative Staphylococcus (GC 4547) (Staphylococcus sp.; Coagulase Negative Staphylococcus (GC 4547)) | MIC Coagulase Negative Staphylococcus (GC 4548) (Staphylococcus sp.; Coagulase Negative Staphylococcus (GC 4548)) | MIC Coagulase Negative Staphylococcus (GC 4549) (Staphylococcus sp.; Coagulase Negative Staphylococcus (GC 4549)) | MIC Coagulase Negative Staphylococcus (GC 4551) (Staphylococcus sp.; Coagulase Negative Staphylococcus (GC 4551)) | MIC Staphylococcus aureus (ATCC 29213) (Staphylococcus sp.; Staphylococcus aureus (ATCC 29213)) | MIC Staphylococcus aureus (GC 1131) (Staphylococcus sp.; Staphylococcus aureus (GC 1131)) | MIC Staphylococcus aureus (GC 4541) (Staphylococcus sp.; Staphylococcus aureus (GC 4541)) | MIC Staphylococcus aureus (GC 4542) (Staphylococcus sp.; Staphylococcus aureus (GC 4542)) | MIC Staphylococcus aureus (GC 4544) (Staphylococcus sp.; Staphylococcus aureus (GC 4544)) | MIC Staphylococcus aureus (GC 4545) (Staphylococcus sp.; Staphylococcus aureus (GC 4545)) | MIC Staphylococcus aureus-SMITH (GC 4543) (Staphylococcus sp.; Staphylococcus aureus-SMITH (GC 4543)) | MIC Staphylococcus haemolyticus (GC 4546) (Staphylococcus sp.; Staphylococcus haemolyticus (GC 4546)) | MIC Staphylococcus aureus (ATCC 29213) (Staphylococcus sp.; broth dilution, strain ATCC 29213) | MIC Staphylococcus aureus (GC 1131) (Staphylococcus sp.; broth dilution, strain GC 1131) | MIC Staphylococcus aureus (GC 4541) (Staphylococcus sp.; broth dilution, strain GC 4541) | MIC Staphylococcus aureus (GC 4542) (Staphylococcus sp.; broth dilution, strain GC 4542) | MIC Staphylococcus aureus (GC 4544) (Staphylococcus sp.; broth dilution, strain GC 4544) | MIC Staphylococcus aureus (GC 4545) (Staphylococcus sp.; broth dilution, strain GC 4545) | MIC Enterococcus avium (GC 4558) (Enterococcus sp.; Enterococcus avium (GC 4558)) | MIC Enterococcus faecalis (ATCC 29212) (Enterococcus sp.; Enterococcus faecalis (ATCC 29212)) | MIC Enterococcus faecalis (GC 2242) (Enterococcus sp.; Enterococcus faecalis (GC 2242), 18 hours at 35° C.) | MIC Enterococcus faecalis (GC 4552) (Enterococcus sp.; Enterococcus faecalis (GC 4552), 18 hours at 35° C.) | MIC Enterococcus faecalis (GC 4553) (Enterococcus sp.; Enterococcus faecalis (GC 4553)) | MIC Enterococcus faecalis (GC 4554) (Enterococcus sp.; Enterococcus faecalis (GC 4554)) | MIC Enterococcus faecium (GC 2243) (Enterococcus sp.; Enterococcus faecium (GC 2243)) | MIC Enterococcus faecium (GC 4556) (Enterococcus sp.; Enterococcus faecium (GC 4556)) | MIC Enterococcus faecalis (ATCC 29212) (Enterococcus sp.; broth dilution, 18 hours at 35° C., strain ATCC 29212) | MIC Enterococcus faecalis (GC 2242) (Enterococcus sp.; broth dilution, 18 hours at 35° C., strain GC 2242) | MIC Enterococcus faecium (GC 2243) (Enterococcus sp.; broth dilution, 18 hours at 35° C., strain GC 2243) | MIC Enterococcus faecalis (GC 4552) (Enterococcus sp.; broth dilution, 18 hours at 35° C., strain GC 4552) | MIC Enterococcus faecalis (GC 4553) (Enterococcus sp.; broth dilution, 18 hours at 35° C., strain GC 4553) | MIC Enterococcus faecalis (GC 4554) (Enterococcus sp.; broth dilution, 18 hours at 35° C., strain GC 4554) | MIC Enterococcus faecium (GC 4556) (Enterococcus sp.; broth dilution, 18 hours at 35° C., strain GC 4556) | MIC Enterococcus avium (GC 4558) (Enterococcus sp.; broth dilution, 18 hours at 35° C., strain GC 4558) | MIC Escherichia coli (GC 4559) (Escherichia coli [1]; Escherichia coli (GC 4559)) | MIC Escherichia coli (ATCC 25922) (Escherichia coli [2])
